pEC50, pIC50: −log10 of the molar value. *1 amine or outer side, *2 acyl side, *3 side chain or, on linkers, in order; H or OH if unused. Where a SMILES comes first, the peptide text is derived from it. Side-chain parts run from the residue outwards. [ ]: non-standard residue; d: D form. The star is where a group is joined. γGlu = O=C(O)[C@H](CCC(=O)[*:2])N[*:1]; Desaminohistidyl = O=C(CCc1c[nH]cn1)*; Aib = CC(C)(N)C(=O)O
How the values were obtained:
human glucagon receptor [1] = target: T1, human glucagon receptor (Homo sapiens, UniProt P47871); test: Assay (II)(b): glucagon receptor binding, 125I-glucagon displacement on isolated membranes (SPA); conditions: displacement of 125I-glucagon, membranes of BHK cells with human glucagon receptor, 2 h at 25° C.; read-out: IC50 hGlucagonR
T1 construct: expressed in transfected cells; host or cells: BHK cells, clone BHK hGCGR A3*25; isolated membranes
Method: (b) Glucagon Receptor Binding
The purpose of this assay was to test the in vitro receptor binding activity of the glucagon derivatives of the invention. The receptor binding activity is a measure of affinity of a derivative for the human glucagon receptor.
The receptor binding of each compound to the human glucagon receptor was measured in a displacement binding assay. In this type of assay a labelled ligand (in this case 125I-glucagon) is bound to the receptor. Each derivative is added in a series of concentrations to isolated membranes containing the human glucagon receptor and displacement of the labelled ligand is monitored. The receptor binding is reported as the concentration at which half of the labelled ligand is displaced from the receptor, the IC50 value.
HME buffer consisted of 25 mM HEPES, 2 mM MgCl2 and 1 mM EDTA, and pH was adjusted to 7.4. Binding buffer consisted of 50 mM HEPES supplemented with 5 mM MgCl2, 1 mM CaCl2, 0.02% Tween 20 and 0.1% Ovalbumin, and pH was adjusted to 7.4.
The cells used in this assay (clone BHK hGCGR A3*25) were BHK cells stable transfected with an expression plasmid containing the cDNA encoding the human glucagon receptor.
The cells were grown at 5% CO2 in DMEM, 10% fetal calf serum, 1% Pen/Strep (Penicillin/Streptomycin) and 1.0 mg/mL of the selection marker G418. To make a membrane preparation the cells were grown to approximately 80% confluence. The cells were washed twice in phosphate-buffered saline and harvested. The cells were pelleted using a brief centrifugation and the cell pellet was kept on ice. The cells were lysed by adding approx. 5 mL HME buffer, mix by pipetting and snap freeze in liquid nitrogen. The cell lysate was quickly thawed and HME buffer added to 10 mL. The cell pellet was homogenised with an ULTRA-THURRAX dispersing instrument for 20-30 seconds. The homogenate was centrifuged at 20,000×G, 4° C. for 10 minutes. The pellet was resuspended (homogenised) in 1-2 mL HME buffer. The protein concentration was determined. The membranes were aliquoted and snap frozen in liquid nitrogen and stored at minus 80° C.
• 1. For the receptor binding assay 50 μl of the assay buffer was added to each well of an assay plate. • 2. Test compounds were serially diluted to give the following concentrations: 8×10 EE-7 M, 8×10 EE-8 M, 8×10 EE-9 M, 8×10 EE-10 M, 8×10 EE-11 M, 8×10 EE-12 M and 8×10 EE-13 M. Twenty-five μl were added to appropriate wells in the assay plate. • 3. Cell membrane aliquots were thawed and diluted to their working concentration. Fifty μl were added to each well in the assay plate. • 4. WGA SPA beads were suspended in assay buffer at 20 mg/mL. The suspension was diluted to 10 mg/mL in assay buffer just prior to addition to the assay plate. Fifty μl were added to each well in the assay plate. • 5. The incubation was started by adding 25 μl of 480 pM solution of [125I]-glucagon to each well of the assay plate. A 25 μl aliquot was reserved for measuring total counts/well. • 6. The assay plate was incubated for 2 h at 25° C. • 7. The assay plate was centrifuged for 10 min at 1500 rpm. • 8. The assay plate was read in a Packard TopCount NXT instrument. Calculations
The data from the TopCount instrument were transferred to GraphPad Prism software. The software averaged the values for the replicates and performed a non-linear regression.

human glucagon receptor [2] = target: T1, human glucagon receptor; test: Assay (I)(b): glucagon receptor activation, CRE luciferase reporter gene assay in BHK cells; type: cell-based; conditions: BHK cells expressing human glucagon receptor and CRE luciferase, 3 h incubation; read-out: EC50 hGlucagonR
Outline: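 BHK570 cells stably expressing the human glucagon receptor and CRE-luciferase, 5×10 EE3 cells/well in DMEM with 2% ovalbumin and 0.2% Pluronic F-68. Compounds at final 1×10 EE-6 to 1×10 EE-13 M, 3 h at 37° C. Luminescence read; EC50 by four-parameter fit.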

T1 sequence (P47871 26-477): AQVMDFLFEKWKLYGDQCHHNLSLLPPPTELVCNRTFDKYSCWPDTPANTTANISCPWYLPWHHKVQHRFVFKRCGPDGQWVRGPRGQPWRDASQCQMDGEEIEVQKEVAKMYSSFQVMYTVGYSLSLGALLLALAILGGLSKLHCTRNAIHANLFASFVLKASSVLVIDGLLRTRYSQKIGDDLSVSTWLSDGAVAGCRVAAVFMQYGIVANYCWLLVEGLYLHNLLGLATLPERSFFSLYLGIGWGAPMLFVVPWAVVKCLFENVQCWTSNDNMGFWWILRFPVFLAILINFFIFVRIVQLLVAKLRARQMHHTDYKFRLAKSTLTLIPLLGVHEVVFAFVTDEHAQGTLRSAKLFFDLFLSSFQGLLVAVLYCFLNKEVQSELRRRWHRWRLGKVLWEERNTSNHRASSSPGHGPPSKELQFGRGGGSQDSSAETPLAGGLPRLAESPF

Structure (SMILES) | pIC50 (human glucagon receptor [1]) | pEC50 (human glucagon receptor [2])
CC(=O)N[C@@H](CCC(=O)N[C@@H](CCC(=O)N[C@@H](CCC(=O)N[C@@H](CCC(=O)NCCCC[C@H](NC(=O)[C@@H](NC(=O)[C@H](Cc1ccccc1)NC(=O)[C@H](CC(=O)O)NC(=O)[C@H](CCC(N)=O)NC(=O)[C@H](C)NC(=O)[C@H](CCCNC(=N)N)NC(=O)[C@H](CCCNC(=N)N)NC(=O)[C@H](CC(C)C)NC(=O)[C@H](CC(=O)O)NC(=O)[C@H](CC(C)C)NC(=O)[C@H](Cc1ccc(O)cc1)NC(=O)[C@H](CCCCN)NC(=O)[C@H](CO)NC(=O)[C@H](Cc1ccc(O)cc1)NC(=O)[C@H](CC(=O)O)NC(=O)[C@H](CO)NC(=O)[C@@H](NC(=O)[C@H](Cc1ccccc1)NC(=O)[C@@H](NC(=O)CNC(=O)[C@H](Cc1c[nH]cn1)NC(=O)C(C)(C)NC(=O)CCc1c[nH]cn1)[C@@H](C)O)[C@@H](C)O)C(C)C)C(=O)N[C@@H](Cc1c[nH]c2ccccc12)C(=O)N[C@@H](CC(C)C)C(=O)N[C@@H](CC(C)C)C(=O)N[C@@H](CO)C(=O)N[C@H](C(=O)O)[C@@H](C)O)C(=O)O)C(=O)O)C(=O)O)C(=O)O [Example 1, N^ϵ24-[(4S)-4-[[(4S)-4-[[(4S)-4-[[(4S)-4-acetamido-4-carboxybutanoyl]amino]-4-carboxybutanoyl]amino]-4-carboxybutanoyl]amino]-4-carboxybutanoyl]-[Imp1, Aib2, His3, Leu16, Lys24, Leu27, Ser28]-Glucagon] (Desaminohistidyl-[Aib]HGTFTSDYSKYLDLRRAQDFVK([γGlu-γGlu-γGlu-γGlu-Ac])WLLST-OH) | 9.70 | 12.00
CC(=O)N[C@@H](CCC(=O)N[C@@H](CCC(=O)N[C@@H](CCC(=O)N[C@@H](CCC(=O)NCCCC[C@H](NC(=O)[C@H](CC(C)C)NC(=O)[C@H](CC(C)C)NC(=O)[C@H](Cc1c[nH]c2ccccc12)NC(=O)[C@H](C)NC(=O)[C@@H](NC(=O)[C@H](Cc1ccccc1)NC(=O)[C@H](CC(=O)O)NC(=O)[C@H](CCC(N)=O)NC(=O)[C@H](C)NC(=O)[C@H](CCCNC(=N)N)NC(=O)[C@H](CCCNC(=N)N)NC(=O)[C@H](CO)NC(=O)[C@H](CCC(=O)O)NC(=O)[C@H](CC(C)C)NC(=O)[C@H](Cc1ccc(O)cc1)NC(=O)[C@H](CCCCN)NC(=O)[C@H](CO)NC(=O)[C@H](Cc1ccc(O)cc1)NC(=O)[C@H](CC(=O)O)NC(=O)[C@H](CO)NC(=O)[C@@H](NC(=O)[C@H](Cc1ccccc1)NC(=O)[C@@H](NC(=O)CNC(=O)[C@H](Cc1c[nH]cn1)NC(=O)C(C)(C)NC(=O)CCc1c[nH]cn1)[C@@H](C)O)[C@@H](C)O)C(C)C)C(=O)N[C@H](C(=O)O)[C@@H](C)O)C(=O)O)C(=O)O)C(=O)O)C(=O)O [Example 4, N^ϵ28-[(4S)-4-[[(4S)-4-[[(4S)-4-[[(4S)-4-acetamido-4-carboxybutanoyl]amino]-4-carboxybutanoyl]amino]-4-carboxybutanoyl]amino]-4-carboxybutanoyl]-[Imp1, Aib2, His3, Glu15, Ala24, Leu27, Lys28]-Glucagon] (Desaminohistidyl-[Aib]HGTFTSDYSKYLESRRAQDFVAWLLK([γGlu-γGlu-γGlu-γGlu-Ac])T-OH) | 8.74 | 11.30
CC(=O)N[C@@H](CCC(=O)N[C@@H](CCC(=O)N[C@@H](CCC(=O)N[C@@H](CCC(=O)NCCCC[C@H](NC(=O)[C@@H](NC(=O)[C@H](Cc1ccccc1)NC(=O)[C@H](CCC(=O)O)NC(=O)[C@H](CCC(N)=O)NC(=O)[C@H](C)NC(=O)[C@H](CCCNC(=N)N)NC(=O)[C@H](CCCNC(=N)N)NC(=O)[C@H](CC(C)C)NC(=O)[C@H](CC(=O)O)NC(=O)[C@H](CC(C)C)NC(=O)[C@H](Cc1ccc(O)cc1)NC(=O)[C@H](CCCCN)NC(=O)[C@H](CO)NC(=O)[C@H](Cc1ccc(O)cc1)NC(=O)[C@H](CC(=O)O)NC(=O)[C@H](CO)NC(=O)[C@@H](NC(=O)[C@H](Cc1ccccc1)NC(=O)[C@@H](NC(=O)CNC(=O)[C@H](Cc1c[nH]cn1)NC(=O)[C@H](CO)NC(=O)CCc1c[nH]cn1)[C@@H](C)O)[C@@H](C)O)C(C)C)C(=O)N[C@@H](Cc1c[nH]c2ccccc12)C(=O)N[C@@H](CC(C)C)C(=O)N[C@@H](CC(C)C)C(=O)N[C@@H](CO)C(=O)N[C@H](C(=O)O)[C@@H](C)O)C(=O)O)C(=O)O)C(=O)O)C(=O)O [Example 8, N^ϵ24-[(4S)-4-[[(4S)-4-[[(4S)-4-[[(4S)-4-acetamido-4-carboxybutanoyl]amino]-4-carboxybutanoyl]amino]-4-carboxybutanoyl]amino]-4-carboxybutanoyl]-[Imp1, His3, Leu16, Glu21, Lys24, Leu27, Ser28]-Glucagon] (Desaminohistidyl-SHGTFTSDYSKYLDLRRAQEFVK([γGlu-γGlu-γGlu-γGlu-Ac])WLLST-OH) | 9.70 | 12.00
CC(=O)N[C@@H](CCC(=O)N[C@@H](CCC(=O)N[C@@H](CCC(=O)N[C@@H](CCC(=O)NCCCC[C@H](NC(=O)[C@@H](NC(=O)[C@H](Cc1ccccc1)NC(=O)[C@H](CC(=O)O)NC(=O)[C@H](CCC(N)=O)NC(=O)[C@H](C)NC(=O)[C@H](CCCNC(=N)N)NC(=O)[C@H](CCCNC(=N)N)NC(=O)[C@@H](NC(=O)[C@H](CC(=O)O)NC(=O)[C@H](CC(C)C)NC(=O)[C@H](Cc1ccc(O)cc1)NC(=O)[C@H](CCCCN)NC(=O)[C@H](CO)NC(=O)[C@H](Cc1ccc(O)cc1)NC(=O)[C@H](CC(=O)O)NC(=O)[C@H](CO)NC(=O)[C@@H](NC(=O)[C@H](Cc1ccccc1)NC(=O)[C@@H](NC(=O)CNC(=O)[C@H](Cc1c[nH]cn1)NC(=O)C(C)(C)NC(=O)CCc1c[nH]cn1)[C@@H](C)O)[C@@H](C)O)C(C)C)C(C)C)C(=O)N[C@@H](Cc1c[nH]c2ccccc12)C(=O)N[C@@H](CC(C)C)C(=O)N[C@@H](CC(C)C)C(=O)N[C@@H](CO)C(=O)N[C@H](C(=O)O)[C@@H](C)O)C(=O)O)C(=O)O)C(=O)O)C(=O)O [Example 10, N^ϵ24-[(4S)-4-[[(4S)-4-[[(4S)-4-[[(4S)-4-acetamido-4-carboxybutanoyl]amino]-4-carboxybutanoyl]amino]-4-carboxybutanoyl]amino]-4-carboxybutanoyl]-[Imp1, Aib2, His3, Val16, Lys24, Leu27, Ser28]-Glucagon] (Desaminohistidyl-[Aib]HGTFTSDYSKYLDVRRAQDFVK([γGlu-γGlu-γGlu-γGlu-Ac])WLLST-OH) | 9.30 | 11.70

— US9963496B2, “Stable glucagon analogues and use for treatment of hypoglycaemia” (Novo Nordisk A/S, priority 2014, dated 2018)
